# Laboratory results: patent US9079902B2, “Heteroaryl sodium channel inhibitors” (AMGEN INC., priority 2011, dated 2015)
# Counter-ions that a name gives are not always drawn.
# Assays:
# Nav 1.7 = Nav 1.7 (Homo sapiens (Human), UniProt Q15858); assay: Nav 1.7 in vitro assay (IonWorks Quattro population patch-clamp); format: cell-based; conditions: 293 cells stably transfected with Nav 1.7; for IC50: 26th pulse to -20 mV, 5 Hz; for inhibition at 4.9 µM: HEK293
# Experimental: (§1) Nav 1.7 and Nav 1.5 In Vitro Assay
# (§2) 293 cells stably transfected with either Nav 1.7 or with Nav 1.5 were recorded in population patch-clamp mode with the IonWorks® Quattro automated electrophysiology system in accordance with the manufacturer's specifications (Molecular Devices, LLC, Sunnyvale, Calif.). Sodium channel currents were measured in response to a train of depolarizations that induced successively greater inactivation.
# (§3) Cells were held at −110 mV for three seconds (Nav 1.7) or half a second (Nav 1.5) from a holding voltage of −15 mV, then put through a series of 26 pulses of 150 msec duration to −20 mV at a frequency of 5 Hz. Cells were then left unclamped for a period of 3 to 8 minutes while a single concentration of test compound was added. Cells were then reclamped and put through the same voltage protocol. Current at the end of the 26th pulse to −20 mV was subtracted from the peak current evoked by the 26th pulse to −20 mV to correct for leak current. Percent block was calculated for each concentration in duplicate, and IC50 curves were fitted to percent block as a function of concentration.
# Nav 1.5 = Nav 1.5 (Homo sapiens (Human), UniProt Q14524); assay: Nav 1.5 in vitro assay (IonWorks Quattro population patch-clamp); format: cell-based; conditions: 293 cells stably transfected with Nav 1.5; 26th pulse to -20 mV, 5 Hz
# Sequence of Nav 1.5 (Q14524 whole entry): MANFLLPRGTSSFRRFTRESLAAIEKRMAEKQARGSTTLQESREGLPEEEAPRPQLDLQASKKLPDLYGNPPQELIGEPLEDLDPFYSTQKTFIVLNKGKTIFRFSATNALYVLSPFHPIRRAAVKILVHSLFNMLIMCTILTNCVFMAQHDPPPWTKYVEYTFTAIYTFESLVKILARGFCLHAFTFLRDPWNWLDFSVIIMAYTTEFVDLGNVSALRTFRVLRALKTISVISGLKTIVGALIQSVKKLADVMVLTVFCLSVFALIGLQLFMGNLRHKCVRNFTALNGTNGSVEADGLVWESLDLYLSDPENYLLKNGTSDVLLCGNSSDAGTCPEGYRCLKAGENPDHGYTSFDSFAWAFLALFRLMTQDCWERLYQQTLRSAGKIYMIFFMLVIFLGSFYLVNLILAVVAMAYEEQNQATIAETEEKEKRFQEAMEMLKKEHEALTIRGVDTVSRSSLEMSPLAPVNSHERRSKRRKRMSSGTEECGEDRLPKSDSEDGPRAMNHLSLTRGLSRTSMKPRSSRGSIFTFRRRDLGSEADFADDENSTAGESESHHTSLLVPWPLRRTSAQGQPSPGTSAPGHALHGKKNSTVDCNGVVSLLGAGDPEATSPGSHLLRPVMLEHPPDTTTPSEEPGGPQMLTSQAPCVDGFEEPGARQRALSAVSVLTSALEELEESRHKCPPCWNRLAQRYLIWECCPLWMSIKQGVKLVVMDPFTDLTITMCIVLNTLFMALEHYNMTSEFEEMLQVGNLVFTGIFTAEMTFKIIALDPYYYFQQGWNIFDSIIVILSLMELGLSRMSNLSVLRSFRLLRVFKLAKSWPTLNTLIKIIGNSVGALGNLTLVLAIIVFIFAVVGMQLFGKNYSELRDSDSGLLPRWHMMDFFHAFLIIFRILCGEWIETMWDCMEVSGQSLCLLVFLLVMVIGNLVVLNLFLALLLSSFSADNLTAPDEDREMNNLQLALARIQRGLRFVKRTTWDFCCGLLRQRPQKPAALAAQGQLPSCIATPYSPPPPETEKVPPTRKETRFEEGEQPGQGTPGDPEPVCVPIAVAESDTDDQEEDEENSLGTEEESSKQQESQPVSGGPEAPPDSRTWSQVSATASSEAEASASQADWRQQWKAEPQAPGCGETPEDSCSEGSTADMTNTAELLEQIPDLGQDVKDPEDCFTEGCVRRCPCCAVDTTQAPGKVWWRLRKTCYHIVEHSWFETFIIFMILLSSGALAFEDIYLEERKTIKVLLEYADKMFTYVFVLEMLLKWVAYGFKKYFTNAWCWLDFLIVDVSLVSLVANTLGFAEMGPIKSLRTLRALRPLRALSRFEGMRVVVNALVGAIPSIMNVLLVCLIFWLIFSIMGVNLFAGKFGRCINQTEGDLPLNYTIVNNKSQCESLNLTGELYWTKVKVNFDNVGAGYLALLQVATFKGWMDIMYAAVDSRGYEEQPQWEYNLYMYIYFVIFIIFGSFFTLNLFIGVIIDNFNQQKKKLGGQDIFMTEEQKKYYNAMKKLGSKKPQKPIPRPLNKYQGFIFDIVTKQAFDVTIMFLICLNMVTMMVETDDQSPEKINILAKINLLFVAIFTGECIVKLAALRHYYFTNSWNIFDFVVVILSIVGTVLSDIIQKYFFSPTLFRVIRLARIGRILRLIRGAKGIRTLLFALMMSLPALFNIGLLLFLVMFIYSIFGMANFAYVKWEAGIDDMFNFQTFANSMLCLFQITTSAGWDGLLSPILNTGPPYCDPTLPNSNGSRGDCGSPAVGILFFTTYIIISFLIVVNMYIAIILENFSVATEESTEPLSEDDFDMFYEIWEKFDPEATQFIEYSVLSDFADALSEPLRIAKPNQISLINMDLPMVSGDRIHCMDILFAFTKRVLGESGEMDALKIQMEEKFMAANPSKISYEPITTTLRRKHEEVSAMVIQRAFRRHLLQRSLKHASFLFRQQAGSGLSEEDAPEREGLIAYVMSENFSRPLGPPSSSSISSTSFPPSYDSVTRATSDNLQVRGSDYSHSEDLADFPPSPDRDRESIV
# Experimental: as §1, §2, §3
# Sequence of Nav 1.7 (Q15858 whole entry): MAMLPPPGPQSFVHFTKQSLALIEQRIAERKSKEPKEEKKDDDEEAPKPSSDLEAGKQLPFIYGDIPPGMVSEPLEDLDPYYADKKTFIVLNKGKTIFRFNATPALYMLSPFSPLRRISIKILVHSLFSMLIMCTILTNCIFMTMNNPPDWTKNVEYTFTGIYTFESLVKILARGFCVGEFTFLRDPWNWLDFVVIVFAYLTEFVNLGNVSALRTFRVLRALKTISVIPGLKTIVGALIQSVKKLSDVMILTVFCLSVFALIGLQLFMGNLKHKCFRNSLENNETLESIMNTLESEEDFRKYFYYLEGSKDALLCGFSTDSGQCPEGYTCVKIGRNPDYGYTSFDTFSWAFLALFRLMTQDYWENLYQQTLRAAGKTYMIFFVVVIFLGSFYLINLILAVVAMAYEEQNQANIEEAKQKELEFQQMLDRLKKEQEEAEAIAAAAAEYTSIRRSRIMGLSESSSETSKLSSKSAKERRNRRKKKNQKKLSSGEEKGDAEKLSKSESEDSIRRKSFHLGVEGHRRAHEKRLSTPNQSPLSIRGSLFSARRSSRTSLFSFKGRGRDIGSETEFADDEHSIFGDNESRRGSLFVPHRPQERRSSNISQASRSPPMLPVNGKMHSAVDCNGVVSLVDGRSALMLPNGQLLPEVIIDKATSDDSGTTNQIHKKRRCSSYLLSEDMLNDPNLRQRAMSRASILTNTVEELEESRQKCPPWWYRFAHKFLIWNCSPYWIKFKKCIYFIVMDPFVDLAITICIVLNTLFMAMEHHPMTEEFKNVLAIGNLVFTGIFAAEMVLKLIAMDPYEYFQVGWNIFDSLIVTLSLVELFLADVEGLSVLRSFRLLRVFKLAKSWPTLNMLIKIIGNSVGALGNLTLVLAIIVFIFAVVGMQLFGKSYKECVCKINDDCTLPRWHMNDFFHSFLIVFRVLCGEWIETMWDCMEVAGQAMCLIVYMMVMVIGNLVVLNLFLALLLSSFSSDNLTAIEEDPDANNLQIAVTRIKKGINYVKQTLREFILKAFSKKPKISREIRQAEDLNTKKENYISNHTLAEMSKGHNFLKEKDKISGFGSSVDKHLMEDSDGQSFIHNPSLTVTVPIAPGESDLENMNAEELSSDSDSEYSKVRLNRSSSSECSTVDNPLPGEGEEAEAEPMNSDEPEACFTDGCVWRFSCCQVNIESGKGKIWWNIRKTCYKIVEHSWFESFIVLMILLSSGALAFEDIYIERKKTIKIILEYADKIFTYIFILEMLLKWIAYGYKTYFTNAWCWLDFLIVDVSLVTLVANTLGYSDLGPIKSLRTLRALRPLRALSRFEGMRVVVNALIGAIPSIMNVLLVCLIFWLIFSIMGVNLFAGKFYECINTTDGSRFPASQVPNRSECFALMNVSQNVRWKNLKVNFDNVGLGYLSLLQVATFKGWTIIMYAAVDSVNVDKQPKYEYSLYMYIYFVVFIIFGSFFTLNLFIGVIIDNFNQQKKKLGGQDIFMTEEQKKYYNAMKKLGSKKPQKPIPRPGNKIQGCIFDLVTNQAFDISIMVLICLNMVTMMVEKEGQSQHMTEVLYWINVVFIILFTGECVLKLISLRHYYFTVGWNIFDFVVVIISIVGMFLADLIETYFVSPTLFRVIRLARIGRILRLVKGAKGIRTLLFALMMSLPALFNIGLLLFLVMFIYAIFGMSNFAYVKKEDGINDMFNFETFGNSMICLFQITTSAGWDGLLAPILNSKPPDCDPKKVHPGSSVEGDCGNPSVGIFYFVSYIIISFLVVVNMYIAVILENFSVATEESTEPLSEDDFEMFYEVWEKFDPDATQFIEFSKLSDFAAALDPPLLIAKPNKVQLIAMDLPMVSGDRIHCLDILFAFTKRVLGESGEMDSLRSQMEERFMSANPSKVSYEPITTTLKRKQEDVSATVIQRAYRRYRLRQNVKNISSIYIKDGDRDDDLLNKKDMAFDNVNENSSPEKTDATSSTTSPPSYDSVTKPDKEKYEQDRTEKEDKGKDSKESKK
Compound,IC50 (Nav 1.7) [µM],inhibition at 4.9 µM (Nav 1.7) [%],IC50 (Nav 1.5) [µM]
"Cn1cc(-c2ccc(C(F)(F)F)cc2-c2ccncc2)c2ccc(S(=O)(=O)Nc3ncns3)cc21 [Example 18, 1-Methyl-3-(2-(Pyridin-4-yl)-4-(Trifluoromethyl)Phenyl)-N-(1,2,4-Thiadiazol-5-yl)-1H-Indole-6-Sulfonamide]",0.05,–,> 10
"Cn1cc(-c2ccc(C(F)(F)F)cc2C#N)c2ccc(S(=O)(=O)Nc3ncns3)cc21 [Example 16, 3-(2-Cyano-4-(Trifluoromethyl)Phenyl)-1-Methyl-N-(1,2,4-Thiadiazol-5-yl)-1H-Indole-6-Sulfonamide]",0.551,–,> 10
"Cn1cc(-c2ccc(C(F)(F)F)cc2-c2cn[nH]c2)c2ccc(S(=O)(=O)Nc3ncns3)cc21 [Example 21, 3-(2-(1H-Pyrazol-4-yl)-4-(Trifluoromethyl)Phenyl)-1-Methyl-N-(1,2,4-Thiadiazol-5-yl)-1H-Indole-6-Sulfonamide]",0.0375,–,> 10
"Cn1cc(-c2cc(Br)cc(C(F)(F)F)c2)c2ccc(S(=O)(=O)Nc3ncns3)cc21 [Example 17, 3-(3-Bromo-5-(Trifluoromethyl)Phenyl)-1-Methyl-N-(1,2,4-Thiadiazol-5-yl)-1H-Indole-6-Sulfonamide]",9.11,–,> 10
"Cc1sc(NS(=O)(=O)c2ccc3c(-c4ccc(C(F)(F)F)cc4-c4ccnn4C)cn(C)c3c2)nc1C(F)(F)F [Example 20, 1-Methyl-3-(2-(1-Methyl-1H-Pyrazol-5-yl)-4-(Trifluoromethyl)Phenyl)-N-(5-Methyl-4-(Trifluoromethyl)Thiazol-2-yl)-1H-Indole-6-Sulfonamide]",–,36.2,> 10
"CC(=O)n1cc(-c2ccc(C(F)(F)F)cc2-c2ccnn2C)c2ccc(S(=O)(=O)Nc3ncns3)cc21 [Example 4, 1-Acetyl-3-(2-(1-Methyl-1H-Pyrazol-5-yl)-4-(Trifluoromethyl)Phenyl)-N-(1,2,4-Thiadiazol-5-yl)-1H-Indole-6-Sulfonamide]",0.0505,–,> 10
"Cn1nccc1-c1cc(Cl)ccc1-c1cn(C)c2cc(S(=O)(=O)Nc3ncns3)ccc12 [Example 2, 3-(4-Chloro-2-(1-Methyl-1H-Pyrazol-5-yl)Phenyl)-1-Methyl-N-(1,2,4-Thiadiazol-5-yl)-1H-Indole-6-Sulfonamide]",0.253,–,> 10
"COC(=O)n1cc(-c2ccc(C(F)(F)F)cc2-c2ccnn2C)c2ccc(S(=O)(=O)Nc3ncns3)cc21 [Example 6, Methyl 6-(N-(1,2,4-Thiadiazol-5-yl)Sulfamoyl)-3-(2-(1-Methyl-1H-Pyrazol-5-yl)-4-(Trifluoromethyl)Phenyl)-1H-Indole-1-Carboxylate]",0.356,–,> 10
"Cn1nccc1-c1cc(C(F)(F)F)ccc1-c1cn(S(C)(=O)=O)c2cc(S(=O)(=O)Nc3ncns3)ccc12 [Example 7, 3-(2-(1-Methyl-1H-Pyrazol-5-yl)-4-(Trifluoromethyl)Phenyl)-1-(Methylsulfonyl)-N-(1,2,4-Thiadiazol-5-yl)-1H-Indole-6-Sulfonamide]",0.532,–,> 10
"Cn1cc(-c2cccnc2)c2ccc(S(=O)(=O)Nc3ncns3)cc21 [Example 9, 1-Methyl-3-(Pyridin-3-yl)-N-(1,2,4-Thiadiazol-5-yl)-1H-Indole-6-Sulfonamide]",1.7,–,> 10
"Cn1cc(-c2ccc(C(F)(F)F)cc2Cl)c2ccc(S(=O)(=O)Nc3ncns3)cc21 [Example 23, 3-(2-Chloro-4-(Trifluoromethyl)Phenyl)-1-Methyl-N-(1,2,4-Thiadiazol-5-yl)-1H-Indole-6-Sulfonamide]",0.687,–,> 10
"Cn1nccc1-c1cc(C(F)(F)F)ccc1-c1c[nH]c2nc(S(=O)(=O)Nc3ncns3)ccc12 [Example 25, 3-(2-(1-Methyl-1H-Pyrazol-5-yl)-4-(Trifluoromethyl)Phenyl)-N-(1,2,4-Thiadiazol-5-yl)-1H-Pyrrolo[2,3-B]Pyridine-6-Sulfonamide]",6.7,–,8.55
"CC(C)n1cc(-c2ccc(C(F)(F)F)cc2-c2ccnn2C)c2ccc(S(=O)(=O)Nc3ncns3)cc21 [Example 3, 1-Isopropyl-3-(2-(1-Methyl-1H-Pyrazol-5-yl)-4-(Trifluoromethyl)Phenyl)-N-(1,2,4-Thiadiazol-5-yl)-1H-Indole-6-Sulfonamide]",1.93,–,> 10
"Cn1cc(-c2cc(F)ccc2F)c2ccc(S(=O)(=O)Nc3ncns3)cc21 [Example 10, 3-(2,5-Difluorophenyl)-1-Methyl-N-(1,2,4-Thiadiazol-5-yl)-1H-Indole-6-Sulfonamide]",2.13,–,> 10
"Cn1nccc1-c1cc(C(F)(F)F)ccc1-c1cn(C)c2cc(S(=O)(=O)Nc3ncns3)ccc12 [Example 8, 1-Methyl-3-(2-(1-Methyl-1H-Pyrazol-5-yl)-4-(Trifluoromethyl)Phenyl)-N-(1,2,4-Thiadiazol-5-yl)-1H-Indole-6-Sulfonamide]",0.147,–,> 10
"Cn1cc(-c2ccc(C(F)(F)F)cc2-c2ccn(C3CNC3)n2)c2ccc(S(=O)(=O)Nc3ncns3)cc21 [Example 19, 3-(2-(1-(Azetidin-3-yl)-1H-Pyrazol-3-yl)-4-(Trifluoromethyl)Phenyl)-1-Methyl-N-(1,2,4-Thiadiazol-5-yl)-1H-Indole-6-Sulfonamide Hydrochloride]",0.263,–,> 10
"Cn1cc(-c2cc(-c3ccncc3)cc(C(F)(F)F)c2)c2ccc(S(=O)(=O)Nc3ncns3)cc21 [Example 15, 1-Methyl-3-(3-(Pyridin-4-yl)-5-(Trifluoromethyl)Phenyl)-N-(1,2,4-Thiadiazol-5-yl)-1H-Indole-6-Sulfonamide]",1.54,–,> 10
"Cn1nccc1-c1cc(Cl)ccc1-c1c[nH]c2cc(S(=O)(=O)Nc3ncns3)ccc12 [Example 1, 3-(4-Chloro-2-(1-Methyl-1H-Pyrazol-5-yl)Phenyl)-N-(1,2,4-Thiadiazol-5-yl)-1H-Indole-6-Sulfonamide]",0.445,–,> 10

# The next lines start with results.
IC50 (Nav 1.7) [µM],inhibition at 4.9 µM (Nav 1.7) [%],Compound,IC50 (Nav 1.5) [µM]
–,24.7,"COc1ccc(-c2cn(C)c3cc(S(=O)(=O)Nc4ncns4)ccc23)cc1C#N [Example 60, 3-(3-Cyano-4-Methoxyphenyl)-1-Methyl-N-(1,2,4-Thiadiazol-5-Yl)-1H-Indole-6-Sulfonamide]",> 10
1.38,–,"Cn1nccc1-c1cc(C(F)(F)F)ccc1-c1cn(C)c2cc(S(=O)(=O)Nc3nc(Br)ns3)ccc12 [Example 50, N-(3-Bromo-1,2,4-Thiadiazol-5-Yl)-1-Methyl-3-(2-(1-Methyl-1H-Pyrazol-5-Yl)-4-(Trifluoromethyl)Phenyl)-1H-Indole-6-Sulfonamide]",> 10
0.269,–,"Cn1cc(-c2ccc(C(F)(F)F)cc2C2=CCNCC2)c2ccc(S(=O)(=O)Nc3nccs3)cc21 [Example 65, 1-Methyl-3-(2-(1,2,3,6-Tetrahydropyridin-4-Yl)-4-(Trifluoromethyl)Phenyl)-N-(Thiazol-2-Yl)-1H-Indole-6-Sulfonamide 2,2,2-Trifluoroacetate]",> 10
8.53,–,"Cn1cc(-c2ccncc2Cl)c2ccc(S(=O)(=O)Nc3ncns3)cc21 [Example 51, 3-(3-Chloropyridin-4-Yl)-1-Methyl-N-(1,2,4-Thiadiazol-5-Yl)-1H-Indole-6-Sulfonamide]",> 10
–,20.5,"Cn1cc(-c2cnn(C3CC3)c2)c2ccc(S(=O)(=O)Nc3ncns3)cc21 [Example 55, 3-(1-Cyclopropyl-1H-Pyrazol-4-Yl)-1-Methyl-N-(1,2,4-Thiadiazol-5-Yl)-1H-Indole-6-Sulfonamide]",> 10
–,20.8,"COc1cc(-c2cn(C)c3cc(S(=O)(=O)Nc4ncns4)ccc23)c(F)cn1 [Example 56, 3-(5-Fluoro-2-Methoxypyridin-4-Yl)-1-Methyl-N-(1,2,4-Thiadiazol-5-Yl)-1H-Indole-6-Sulfonamide]",> 10
1.13,–,"Cn1nccc1-c1cc(C(F)(F)F)ccc1-n1cnc2cc(S(=O)(=O)Nc3ncns3)ccc21 [Example 63, 1-(2-(1-Methyl-1H-Pyrazol-5-Yl)-4-(Trifluoromethyl)Phenyl)-N-(1,2,4-Thiadiazol-5-Yl)-1H-Benzo[D]Imidazole-5-Sulfonamide]",> 10
0.674,–,"CC(=O)n1cc(-c2ccc(C(F)(F)F)cc2-c2ccnn2C)c2ccc(S(=O)(=O)Nc3ncns3)nc21 [Example 27, 1-Acetyl-3-(2-(1-Methyl-1H-Pyrazol-5-yl)-4-(Trifluoromethyl)Phenyl)-N-(1,2,4-Thiadiazol-5-yl)-1H-Pyrrolo [2,3-B]Pyridine-6-Sulfonamide]",> 10
–,23.3,"Cn1cc(-c2ccc(C(F)(F)F)cc2)c2ccc(S(=O)(=O)Nc3ncns3)cc21 [Example 57, 1-Methyl-N-(1,2,4-Thiadiazol-5-Yl)-3-(4-(Trifluoromethyl)Phenyl)-1H-Indole-6-Sulfonamide]",> 10
–,25.1,"Cn1cc(-c2ccccc2OC(F)(F)F)c2ccc(S(=O)(=O)Nc3ncns3)cc21 [Example 58, 1-Methyl-N-(1,2,4-Thiadiazol-5-Yl)-3-(2-(Trifluoromethoxy)Phenyl)-1H-Indole-6-Sulfonamide]",> 10
